The values below come from patent publication US20240317714A1, “3-[(1H-PYRAZOL-R-YL)OXY]PYRAZIN-2-AMINE COMPOUNDS AS HPK1 INHIBITOR AND USE THEREOF” (BeiGene, Ltd., priority 2020, published 2024).

A word on the IC50: it is the midpoint of a concentration-inhibition curve.

Test [1] addresses HPK1 kinase (aal-346. Life Technologies) (Homo sapiens (Human), UniProt Q92918). The test can be described thus: HPK Kinase Activity Assay at 1 mM ATP (TR-FRET). The format is biochemical. To be noted: HPK1 kinase 40 nM, 0.5 μM STK1 substrate, read-out: Enzymatic activity IC50. Background: Time-resolved FRET reads energy transfer from a long-lived donor to a nearby acceptor.
Test [2] concerns pSLP76(S376) level in Jurkat cell line. Description: Cellular pSLP76(S376) HTRF Assay. The format is cell-based. To be noted: Jurkat cells, 2 h compound treatment, stimulated with 0.05 μg/mL anti-human CD3 (OKT3) for 30 min.

HPK1 kinase (aal-346. Life Technologies), sequence (Q92918 1-346): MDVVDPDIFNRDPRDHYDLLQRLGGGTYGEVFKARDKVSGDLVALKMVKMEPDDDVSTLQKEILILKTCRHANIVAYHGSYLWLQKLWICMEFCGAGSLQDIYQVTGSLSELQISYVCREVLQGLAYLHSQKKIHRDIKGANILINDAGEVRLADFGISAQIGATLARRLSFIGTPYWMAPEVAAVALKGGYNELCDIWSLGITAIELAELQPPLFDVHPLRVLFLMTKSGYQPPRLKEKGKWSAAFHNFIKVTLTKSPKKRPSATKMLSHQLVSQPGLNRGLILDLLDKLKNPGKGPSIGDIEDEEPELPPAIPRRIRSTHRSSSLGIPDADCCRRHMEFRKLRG

In the case of `Cc1cc(-c2cnc(N)c(Oc3cnn(C4CCN(C)CC4)c3)n2)cc([C@@]2(O)CCOC2)c1` (single isomer, unassigned) [Example A74A], the IC50 in test [1] came out at 46 nM; in test [2] it was 85 nM.
In the case of `C[C@@H]1COCCN1c1cc(-c2cnc(N)c(Oc3cnn(C4CCN(C)CC4)c3)n2)cc(C2(O)CCCOC2)c1` (single isomer, unassigned) [Example A90A], in test [1], the IC50 stood at 82 nM.
Take `C[C@@H]1COCCN1c1cc(-c2cnc(N)c(Oc3cnn(C4CCN(C)CC4)c3)n2)cc(C2(O)CCCOC2)c1` (single isomer, unassigned) [Example A90B]: the half-maximal inhibitory concentration (IC50) in test [1] amounted to 7.1 nM; in test [2] (Homo sapiens, Jurkat), 100 nM.
`CC1OCCC1(O)c1cc(-c2cnc(N)c(Oc3cnn(C4CCN(C)CC4)c3)n2)cc(N2CCOC[C@H]2C)c1` (single isomer, unassigned) [Example A95A]: the half-maximal inhibitory concentration (IC50) in test [1] amounted to 44 nM; in test [2] (Homo sapiens, Jurkat), 124 nM.
For the molecule `CC1OCCC1(O)c1cc(-c2cnc(N)c(Oc3cnn(C4CCN(C)CC4)c3)n2)cc(N2CCOC[C@H]2C)c1` (single isomer, unassigned) [Example A95B], the concentration for half-maximal inhibition (IC50) in test [1] came to 4.5 nM.
Take `Cc1cc(-c2cnc(N)c(Oc3cnn(C4CCN(C)CC4)c3)n2)cc(C)c1C(=O)NCCN(C)C` [Example A1, 4-(5-amino-6-((1-(1-methylpiperidin-4-yl)-1H-pyrazol-4-yl)oxy)pyrazin-2-yl)-N-(2-(dimethylamino)ethyl)-2,6-dimethylbenzamide]: the IC50 in test [1] came out at 47 nM; in test [2] (Homo sapiens, Jurkat), 93 nM.
With `CNS(=O)(=O)c1cc(C)cc(-c2cnc(N)c(Oc3cnn(C4CCN(C)CC4)c3)n2)c1` [Example A2, 3-(5-amino-6-((1-(1-methylpiperidin-4-yl)-1H-pyrazol-4-yl)oxy)pyrazin-2-yl)-N,5-dimethylbenzenesulfonamide], the IC50 in test [1] stood at 14 nM; in test [2] (Homo sapiens, Jurkat), 34 nM.
For the molecule `CNC(=O)c1c(C)cc(-c2cnc(N)c(Oc3cnn(C4CCN(C)CC4)c3)n2)cc1C` [Example A3, 4-(5-amino-6-(1-(1-methylpiperidin-4-yl)-1H-pyrazol-4-yloxy)pyrazin-2-yl)-N,2,6-trimethylbenzamide], the half-maximal inhibitory concentration (IC50) in test [1] was 110 nM; in test [2] (Homo sapiens, Jurkat) it was 150 nM.
In the case of `Cc1cc(-c2cnc(N)c(Oc3cnn(C4CCN(C)CC4)c3)n2)cc(C)c1C(=O)NCCN1CCCC1` [Example A4, 4-(5-amino-6-((1-(1-methylpiperidin-4-yl)-1H-pyrazol-4-yl)oxy)pyrazin-2-yl)-2,6-dimethyl-N-(2-(pyrrolidin-1-yl)ethyl)benzamide], the IC50 in test [1] was 25 nM; in test [2] (Homo sapiens, Jurkat), 91 nM.
The like results for `Cc1cc(-c2cnc(N)c(Oc3cnn(C4CCN(C)CC4)c3)n2)cc(C)c1C(=O)NCCN1CCCCC1` [Example A5, 4-(5-amino-6-(1-(1-methylpiperidin-4-yl)-1H-pyrazol-4-yloxy)pyrazin-2-yl)-2,6-dimethyl-N-(2-(piperidin-1-yl)ethyl)benzamide] were, in that order, 35 nM and 70 nM.
As for `Cc1cc(-c2cnc(N)c(Oc3cnn(C4CCN(C)CC4)c3)n2)cc(S(N)(=O)=O)c1` [Example A6, 3-(5-amino-6-((1-(1-methylpiperidin-4-yl)-1H-pyrazol-4-yl)oxy)pyrazin-2-yl)-5-methylbenzenesulfonamide], the IC50 in test [1] is 44 nM; in test [2] (Homo sapiens, Jurkat) it was 35 nM.
Turning to `CNS(=O)(=O)c1cc(OC)cc(-c2cnc(N)c(Oc3cnn(C4CCN(C)CC4)c3)n2)c1` [Example A7, 3-(5-amino-6-((1-(1-methylpiperidin-4-yl)-1H-pyrazol-4-yl)oxy)pyrazin-2-yl)-5-methoxy-N-methylbenzenesulfonamide], the IC50 in test [1] was 20 nM; in test [2] (Homo sapiens, Jurkat), 62 nM.
As to `CNS(=O)(=O)c1cc(-c2cnc(N)c(Oc3cnn(C4CCN(C)CC4)c3)n2)cc(C)c1C` [Example A8, 5-(5-amino-6-((1-(1-methylpiperidin-4-yl)-1H-pyrazol-4-yl)oxy)pyrazin-2-yl)-N,2,3-trimethylbenzemesulfonamide], the half-maximal inhibitory concentration (IC50) in test [1] was 8 nM; in test [2] (Homo sapiens, Jurkat) it was 30 nM.
Regarding `Cc1cc(-c2cnc(N)c(Oc3cnn(C4CCN(C)CC4)c3)n2)cc(S(=O)(=O)NCCN2CCCCC2)c1` [Example A9, 3-(5-amino-6-((1-(1-methylpiperidin-4-yl)-1H-pyrazol-4-yl)oxy)pyrazin-2-yl)-5-methyl-N-(2-(piperidin-1-yl)ethyl)benzenesulfonamide], the half-inhibitory concentration (IC50) in test [1] stood at 46 nM; in test [2] (Homo sapiens, Jurkat), 99 nM.
Regarding `Cc1cc(-c2cnc(N)c(Oc3cnn(C4CCN(C)CC4)c3)n2)cc(S(=O)(=O)NCCC#N)c1` [Example A10, 3-(5-amino-6-((1-(1-methylpiperidin-4-yl)-1H-pyrazol-4-yl)oxy)pyrazin-2-yl)-N-(2-cyanoethyl)-5-methylbenzenesulfonamide], the IC50 stood at 44 nM in test [1] and 117 nM in test [2] (Homo sapiens, Jurkat).
`Cc1cc(-c2cnc(N)c(Oc3cnn(C4CCN(C)CC4)c3)n2)cc(C2(NS(C)(=O)=O)CC2)c1` [Example A11, N-(1-(3-(5-amino-6-((1-(1-methylpiperidin-4-yl)-1H-pyrazol-4-yl)oxy)pyrazin-2-yl)-5-methylphenyl)cyclopropyl)methanesulfonamide]: the concentration for half-maximal inhibition (IC50) in test [1] came out at 9 nM; in test [2] (Homo sapiens, Jurkat), 54 nM.
`Cc1cc(CCNS(C)(=O)=O)cc(-c2cnc(N)c(Oc3cnn(C4CCN(C)CC4)c3)n2)c1` [Example A12, N-(3-(5-amino-6-((1-(1-methylpiperidin-4-yl)-1H-pyrazol-4-yl)oxy)pyrazin-2-yl)-5-methylphenethyl)methanesulfonamide]: the IC50 stood at 127 nM in test [1] and 119 nM in test [2] (Homo sapiens, Jurkat).
The like results for `CNS(=O)(=O)c1cc(C)cc(-c2cnc(N)c(Oc3cnn(C4CCNCC4)c3)n2)c1` [Example A13, 3-(5-amino-6-((1-(piperidin-4-yl)-1H-pyrazol-4-yl)oxy)pyrazin-2-yl)-N,5-dimethylbenzenesulfonamide] were, in that order, 139 nM and 120 nM.
Consider `CNS(=O)(=O)c1cc(C)cc(-c2cnc(N)c(Oc3cnn([C@@H]4C[C@H]5CC[C@@H](C4)N5C)c3)n2)c1` [Example A14, 3-(5-amino-6-((1-((1R,3s,5S)-8-methyl-8-azabicyclo[3.2.1]octan-3-yl)-1H-pyrazol-4-yl)oxy)pyrazin-2-yl)-N,5-dimethylbenzenesulfonamide], for which the IC50 in test [1] came out at 45 nM; in test [2] (Homo sapiens, Jurkat), 59 nM.
Consider `CCNS(=O)(=O)c1cc(C)cc(-c2cnc(N)c(Oc3cnn(C4CCN(C)CC4)c3)n2)c1` [Example A15, 3-(5-amino-6-((1-(1-methylpiperidin-4-yl)-1H-pyrazol-4-yl)oxy)pyrazin-2-yl)-N-ethyl-5-methylbenzenesulfonamide], for which the half-inhibitory concentration (IC50) in test [1] is 83 nM; in test [2] (Homo sapiens, Jurkat) it was 157 nM.
On to `CNS(=O)(=O)c1cc(OC(C)C)cc(-c2cnc(N)c(Oc3cnn(C4CCN(C)CC4)c3)n2)c1` [Example A16, 3-(5-amino-6-((1-(1-methylpiperidin-4-yl)-1H-pyrazol-4-yl)oxy)pyrazin-2-yl)-5-isopropoxy-N-methylbenzenesulfonamide; formic acid], for which the 50% inhibitory concentration (IC50) is 18 nM in test [1] and 80 nM in test [2] (Homo sapiens, Jurkat).
On to `Cc1cc(-c2cnc(N)c(Oc3cnn(C4CCN(C)CC4)c3)n2)cc(C(=O)NCCN(C)C)c1C` [Example A17, 5-(5-amino-6-((1-(1-methylpiperidin-4-yl)-1H-pyrazol-4-yl)oxy)pyrazin-2-yl)-N-(2-(dimethylamino)ethyl)-2,3-dimethylbenzamide], for which the IC50 in test [1] worked out at 59 nM; in test [2] (Homo sapiens, Jurkat), 194 nM.
The corresponding values for `CNS(=O)(=O)c1cc(-c2cnc(N)c(Oc3cnn(C4CCN(C)CC4)c3)n2)cc(F)c1C` [Example A18, 5-(5-amino-6-((1-(1-methylpiperidin-4-yl)-1H-pyrazol-4-yl)oxy)pyrazin-2-yl)-3-fluoro-N,2-dimethylbenzenesulfonamide] are 100 nM and 47 nM.
Consider `Cc1cc(-c2cnc(N)c(Oc3cnn(C4CCN(C)CC4)c3)n2)cc(C)c1CNS(C)(=O)=O` [Example A19, N-(4-(5-amino-6-((1-(1-methylpiperidin-4-yl)-1H-pyrazol-4-yl)oxy)pyrazin-2-yl)-2,6-dimethylbenzyl)methanesulfonamide], for which the half-maximal inhibitory concentration (IC50) was determined as 44 nM in test [1] and 46 nM in test [2] (Homo sapiens, Jurkat).
Take `Cc1cc(-c2cnc(N)c(Oc3cnn(C4CCN(C)CC4)c3)n2)cc(C2(NS(=O)(=O)c3ccccc3)CC2)c1` [Example A20, N-(1-(3-(5-amino-6-((1-(1-methylpiperidin-4-yl)-1H-pyrazol-4-yl)oxy)pyrazin-2-yl)-5-methylphenyl)cyclopropyl)benzenesulfonamide]: the 50% inhibitory concentration (IC50) stood at 70 nM in test [1] and 97 nM in test [2] (Homo sapiens, Jurkat).
For `CONC(=O)c1c(C)cc(-c2cnc(N)c(Oc3cnn(C4CCN(C)CC4)c3)n2)cc1C` [Example A21, 4-(5-amino-6-((1-(1-methylpiperidin-4-yl)-1H-pyrazol-4-yl)oxy)pyrazin-2-yl)-N-methoxy-2,6-dimethylbenzamide], the concentration for half-maximal inhibition (IC50) turned out to be 104 nM in test [1] and 188 nM in test [2] (Homo sapiens, Jurkat).
For the molecule `CNc1cc(-c2cnc(N)c(Oc3cnn(C4CCN(C)CC4)c3)n2)cc(S(=O)(=O)NC)c1` [Example A22, 3-(5-amino-6-((1-(1-methylpiperidin-4-yl)-1H-pyrazol-4-yl)oxy)pyrazin-2-yl)-N-methyl-5-(methylamino)benzenesulfonamide], the IC50 in test [1] is 14 nM; in test [2] (Homo sapiens, Jurkat), 38 nM.
With `CNS(=O)(=O)c1cc(-c2cnc(N)c(Oc3cnn(C4CCN(C)CC4)c3)n2)cc(N2CCCC2)c1` [Example A23, 3-(5-amino-6-((1-(1-methylpiperidin-4-yl)-1H-pyrazol-4-yl)oxy)pyrazin-2-yl)-N-methyl-5-(pyrrolidin-1-yl)benzenesulfonamide], the concentration for half-maximal inhibition (IC50) in test [1] came to 6 nM; in test [2] (Homo sapiens, Jurkat), 35 nM.
Turning to `Cc1cc(-c2cnc(N)c(Oc3cnn(C4CCN(C)CC4)c3)n2)cc([C@H]2CCC(=O)N2)c1` [Example A61A, (R)-5-(3-(5-amino-6-((1-(1-methylpiperidin-4-yl)-1H-pyrazol-4-yl)oxy)pyrazin-2-yl)-5-methylphenyl)pyrrolidin-2-one], the IC50 in test [1] was found to be 253 nM.
